{"source": "patent US20090130171A1", "about": "“High concentration gentian violet containing medical devices and methods of making same” (priority 2007, published 2009)", "key": {"[1]": {"format": "physicochemical", "settings": "0.5 %", "method": "Compounding Conditions for stable gentian violet:\nBarrel Temperatures: • Zone 1-5=170° C. • Zone 6=175° C.,\nCompounding Temperature for degraded gentian violet:\nCompounding was performed with Sigma Aldrich ACS grade gentian violet, lot 016K3691. HPLC analysis was performed by cutting and measuring 1 cm segments of each formulation (n=3) using the method described in Examples I and II.\nThe chromatograms in FIGS. 5-10 show the stable gentian violet followed by the degraded gentian violet, at 588 nm, 253 nm, and 280 nm. The degradation peaks from the 217° C. sample are evident as the new peaks at 253 and 280 nm wavelengths. The chromatogram of the low processing temperature was identical to that of the Gentian Violet raw material."}, "[2]": {"experiment": "Decolorization of GV: photo-oxidation with H2O2 under UV light (Protocol 1)", "format": "physicochemical", "settings": "0.1% GV in 3% H2O2 and agar stain", "method": "(§1) Protocol 1. Photo-oxidation of GV with H2O2 • 1.1. 0.15 g GV (0.1% w/v) was dissolved in 150 ml 3% H2O2. The solution was exposed to UV light (Bio-lab hood) for 2 hours. 5 ml of solution was extracted out, in increments of 5 mins. • 1.2. 10 μl of 0.1% GV in DI water was spiked onto a plated agar plate. After staining of the agar plate (evaporation of most of the water from the spiked drop), H2O2 was pipetted onto the stain in increments of 50 μl every 5 mins for 2 hours, under the UV light. Protocol 2. Oxidation of GV by activation of H2O2 with Ag • 2.1. 10.6 mg of nano-particle Silver was mixed into 40 ml 3% H2O2 with constant stirring. 0.1% GV in water was added at various increments (10 μl-1 ml) until purple color persisted. Molar concentration ratios (GV:Ag) were calculated to determine the molar ratio where GV is no longer oxidized. • 2.2 10 μl of 0.1% GV in DI water was spiked onto a plated agar plate. After staining of the agar plate (evaporation of most of the water from the spiked drop), 0.009 g of Ag was applied to the surface of the stain and 100 μl of H2O2 was pipette onto the Ag. Protocol 3. Oxidation of GV by activation of H2O2 with Vitamin C 1% Vitamin C (w/v) was dissolved in 100 ml 3% H2O2. 7 g of TRIS buffer was also dissolved in the H2O2. 0.1% GV in water was added at increments of 10 μl until the purple color persisted."}, "[3]": {"experiment": "Decolorization of GV: activation of H2O2 with nano-particle silver (Protocol 2)", "format": "physicochemical", "method": "as §1"}, "[4]": {"experiment": "Decolorization of GV: activation of H2O2 with Vitamin C (Protocol 3)", "format": "physicochemical", "settings": "1% Vitamin C in 3% H2O2, TRIS, pH 6-7, first 10 μl of 0.1% GV", "method": "as §1"}}}
{"smiles": "CN(C)c1ccc(C(=C2C=CC(=[N+](C)C)C=C2)c2ccc(N(C)C)cc2)cc1", "note": "[gentian violet]", "values": [{"measurement": "processing temperature at which extruded gentian violet degrades", "setting": "[1]", "value": 217, "unit": "°C"}, {"measurement": "color change of GV", "setting": "[2]", "value": "No color change"}, {"measurement": "color change of GV solution", "setting": "[3]; 0.1% GV pipetted into Ag + 3% H2O2 solution", "value": "fade to a faint yellow color"}, {"measurement": "color change of GV stain on agar", "setting": "[3]; 10 μl 0.1% GV stain, Ag + 100 μl H2O2", "value": "turn to a faint yellow color after 10 mins"}, {"measurement": "color of solution after GV addition", "setting": "[4]", "value": "remained purple"}]}
